Source: patent US9161930B2, “Pharmaceutical composition for diabetic nephropathy and its preparation and application” (Guangzhou Consun Medicine R & D Co., Ltd., priority 2009, dated 2015)

Tests used:
[1] = tested on: Rat messangial cell line HBZY-1; assay: Hydroxyproline content in supernatant of rat mesangial cells induced by AGEs; type: cell-based; details: AGEs 0.25 mg/ml, 48 h, supernatant of HBZY-1 cells
Method: Dissolved the 5% bovine serum albumin (BSA) without globulin and 0.5 mol/L D-amylaceum in 0.2 mol/L phosphate buffered solution (PBS, PH=7.2), filtrated with 0.24 μm micropore film and incubated under 37° C. for 60 days. After the incubation of the advanced glycation end products (AGEs) were finished, the umcombinated material was cleaned by extend dialyse method. Diluted to a necessary concentration and filtrated with 0.22 μm micropore film.
Prepare of unicell suspension with HBZY-1 cells in log phase growth and DMEM medium with 5% newborn calf serum, take 100 μl/well (cell quantities: 1×10^4/well) to the 96-well plate, incubated under 5% CO2 incubator at 37° C. for 24 hours, change with 100 μl the DMEM without serum and incubate another 24 hours to make the cells to anestrum (synchronization). Discard of the supernatant, add 90 μl DMEM medium with 5% newborn calf serum and 10 μl the different concentration of AGEs by gradient dilution with 6 repeat per group, incubate by gradient time, respectively, determinate the proliferation degree of rat mesangial cells by MTT.
(§1) Put the coverslips pre-treated by poly-L-lysine into 24-well cell culture plates, in order to make the HBZY-1 cells grow on until synchronization. Discard of the supernatant, add 800 μl DMEM medium, 100 μl AGEs (final concentration is 0.25 mg/ml) in each medicine group, then add 100 μl water extract of Cortex Mori (final concentration is 0.1 g/L) or DPMC (final concentration is 0.5, 5, 25 or 125 nM/L). The normal control group is added 1 ml DEME medium when the AGEs group is added 900 μl DMEM medium and 100 μl AGEs (final concentration was 0.25 mg/ml). Every group repeats for 6 times. Then, all the groups are incubated under 5% CO2 incubator at 37° C. for 48 h. Take suction of the cell supernatant for the content determination of hydroxyproline after the cells completely covered the coverslips and take out of the coverslips for immunocytochemistry staining.
Determinate the hydroxyproline content in cultured fluid of rat mesangial cells and express as x±s, analyze by t-test; observate the TGFβ-1 expression in immunohistochemistry photo of rat mesangial cells under microscope.

[2] = tested on: STZ diabetic nephropathy model rat; assay: Pathohistology (pathology score) of rat glomcrulus in model of diabetic nephropathy; type: in vivo, Wistar rat; details: 14 weeks
Method: (§2) Model by administrating of low dose STZ for several times and determinate as the model rat of diabetic nephropathy, divide into 6 groups with 10 mice/group: model group, positive drug control group (aminoguanidine, 100 mg/kg), water extract of Cortex Mori group, 3 different concentration doses of DPMC group (high dose group: 4 mg/kg; middle dose group: 2 mg/kg; low dose: 1 mg/kg), normal control group.
(§3) Each group is given the same volume corresponding drug in different concentration or physiological saline everyday by intragastric administration for 14 weeks.
(§4) Collect the 24 hour urine after administration is over, calculate the urine volume and determinate the content of total protein of urine, micro-albumen and urine creatinine; obtain blood by eye sockets and determinate the biochemical indicator with automatic biochemistry analyzer; take out of the double kidneys, fix with formalin and remain to histopathologic examination.
(§5) Statistical analysis of all determinations is calculated by interclass t-test and expressed as x±s.

TGFβ-1 = TGFβ-1 expression of rat mesangial cells induced by AGEs (immunocytochemistry staining); type: cell-based; details: 48 h, FIG. 1
Method: as §1, with “staining. […]” for “staining.”

[3] = tested on: STZ diabetic nephropathy model rat; assay: Serum biochemical indicators in rat of diabetic nephropathy (STZ); type: in vivo, Wistar rat; details: 14 weeks
Method: as §2, §3, §4, §5

CTGF = CTGF expression of rat glomcrulus in model of diabetic nephropathy; type: in vivo, Wistar rat; details: 14 weeks, STZ rat
Method: as §2, §3, §4, §5

[4] = tested on: STZ diabetic nephropathy model rat; assay: 24 hour urine indicators in rat model of diabetic nephropathy induced by STZ; type: in vivo, Wistar rat; details: 14 weeks; for Total protein (mg) of urine / micro-albumen / urine creatinine: 24 hour urine
Method: as §2, §3, §4, §5

[5] = 100 mg/kg intragastric everyday

## COC(=O)Nc1ccc(Cc2ccc(NC(=O)OC)cc2)cc1 [DPMC, 4,4′-diphenylmethane-bis(methyl) carbamates]
[1]; 0.5 nM/L
  hydroxyproline: 7.68 ± 1.10 µg/mL
[1]; 5 nM/L
  hydroxyproline: 7.76 ± 1.21 µg/mL
[1]; 25 nM/L
  hydroxyproline: 5.71 ± 1.18 µg/mL
[1]; 125 nM/L
  hydroxyproline: 4.76 ± 0.58 µg/mL
[2]; 1 mg/kg intragastric everyday
  Pathology score: 2.7 ± 1.0
[2]; 2 mg/kg intragastric everyday
  Pathology score: 1.8 ± 1.3
[2]; 4 mg/kg intragastric everyday
  Pathology score: 1.2 ± 1.1
TGFβ-1; different doses 0.5, 5, 25, 125 nM/L
  TGFβ-1 expression of rat mesangial cells induced by AGEs: restrain the TGFβ-1 expression increase
TGFβ-1; large dose 125 nM/L
  TGFβ-1 expression of rat mesangial cells induced by AGEs: performs best
[3]; 1 mg/kg intragastric everyday
  AGEs: 290 ± 59
  BUN: 7.0 ± 1.0 mmol/L
  LDL: 1.91 ± 0.55 mmol/L
  MDA: 7.8 ± 2.3 nmol/L
  SC (umol/L), serum creatinine: 91.0 ± 31.1 µmol/L
  SOD (U/ml): 498 ± 33 U/ml
  TG: 3.23 ± 0.76 mmol/L
[3]; 2 mg/kg intragastric everyday
  AGEs: 289 ± 56
  BUN: 6.6 ± 1.2 mmol/L
  LDL: 1.51 ± 0.53 mmol/L
  MDA: 6.8 ± 1.9 nmol/L
  SC (umol/L), serum creatinine: 76.6 ± 24.5 µmol/L
  SOD (U/ml): 513 ± 41 U/ml
  TG: 2.76 ± 0.80 mmol/L
[3]; 4 mg/kg intragastric everyday
  AGEs: 281 ± 78
  BUN: 6.5 ± 1.5 mmol/L
  LDL: 1.43 ± 0.36 mmol/L
  MDA: 6.8 ± 1.3 nmol/L
  SC (umol/L), serum creatinine: 74.0 ± 17.1 µmol/L
  SOD (U/ml): 520 ± 29 U/ml
  TG: 2.57 ± 0.80 mmol/L
CTGF; 1 mg/kg intragastric everyday
  CTGF(%): 7.1 ± 1.6 %
CTGF; 2 mg/kg intragastric everyday
  CTGF(%): 6.4 ± 2.7 %
CTGF; 4 mg/kg intragastric everyday
  CTGF(%): 6.0 ± 3.1 %
[4]; 1 mg/kg intragastric everyday
  Urine V (24 hr, ml): 59.9 ± 21.8 mL
  Total protein (mg) of urine: 69.1 ± 20.4 mg
  micro-albumen: 1.57 ± 0.56 mg
  urine creatinine: 1.4 ± 0.6 mmol/L
[4]; 2 mg/kg intragastric everyday
  Urine V (24 hr, ml): 41.3 ± 16.4 mL
  Total protein (mg) of urine: 54.0 ± 17.4 mg
  micro-albumen: 0.93 ± 0.55 mg
  urine creatinine: 2.9 ± 1.2 mmol/L
[4]; 4 mg/kg intragastric everyday
  Urine V (24 hr, ml): 33.9 ± 22.2 mL
  Total protein (mg) of urine: 46.2 ± 21.6 mg
  micro-albumen: 0.92 ± 0.42 mg
  urine creatinine: 4.3 ± 2.0 mmol/L

## N=C(N)NN [aminoguanidine, reference compound]
[2]; [5]
  Pathology score: 2.1 ± 1.0
[3]; [5]
  AGEs: 283 ± 78
  BUN: 6.6 ± 0.8 mmol/L
  LDL: 2.01 ± 0.58 mmol/L
  MDA: 5.9 ± 1.7 nmol/L
  SC (umol/L), serum creatinine: 77.7 ± 20.3 µmol/L
  SOD (U/ml): 516 ± 20 U/ml
  TG: 3.35 ± 0.87 mmol/L
CTGF; [5]
  CTGF(%): 5.9 ± 2.2 %
[4]; [5]
  Urine V (24 hr, ml): 36.2 ± 21.7 mL
  Total protein (mg) of urine: 43.2 ± 29.9 mg
  micro-albumen: 1.00 ± 0.27 mg
  urine creatinine: 4.0 ± 2.3 mmol/L
